ChEMBL document CHEMBL5523679, “Discovery of 1,2,3-triazole incorporated indole-piperazines as potent antitubercular agents: Design, synthesis, in vitro biological evaluation, molecular docking and ADME studies” (Bioorg Med Chem, 2024)

Legend:
Format in all cases: functional
[1] = tested on: Staphylococcus aureus; assay: Antibacterial activity against Staphylococcus aureus assessed as inhibition zone at 25 ug/ml by diffusion method; details: read-out: IZ
[2] = tested on: Mycobacterium tuberculosis; assay: Antimycobacterial activity against Mycobacterium tuberculosis H37Rv assessed as bacterial growth inhibition by microplate Alamar blue assay
[3] = tested on: Staphylococcus aureus; assay: Antibacterial activity against Staphylococcus aureus assessed as inhibition zone at 50 ug/ml by diffusion method; details: read-out: IZ
[4] = tested on: Pseudomonas aeruginosa; assay: Antibacterial activity against Pseudomonas aeruginosa assessed as inhibition zone at 50 ug/ml by diffusion method; details: read-out: IZ
[5] = tested on: Staphylococcus aureus; assay: Antibacterial activity against Staphylococcus aureus assessed as inhibition zone at 75 ug/ml by diffusion method; details: read-out: IZ
[6] = tested on: Pseudomonas aeruginosa; assay: Antibacterial activity against Pseudomonas aeruginosa assessed as inhibition zone at 75 ug/ml by diffusion method; details: read-out: IZ
[7] = tested on: Escherichia coli; assay: Antibacterial activity against Escherichia coli assessed as inhibition zone at 50 ug/ml by diffusion method; details: read-out: IZ
[8] = tested on: Escherichia coli; assay: Antibacterial activity against Escherichia coli assessed as inhibition zone at 75 ug/ml by diffusion method; details: read-out: IZ
[9] = tested on: Escherichia coli; assay: Antibacterial activity against Escherichia coli assessed as inhibition zone at 25 ug/ml by diffusion method; details: read-out: IZ

O=C(Cc1c[nH]c2ccccc12)N1CCN(S(=O)(=O)c2ccc(F)cc2)CC1
zone of inhibition at 25 µg/mL [1]: 13 mm
MIC [2]: > 120 µM
zone of inhibition at 50 µg/mL [3]: 15 mm
zone of inhibition at 50 µg/mL [4]: 10 mm
zone of inhibition at 75 µg/mL [5]: 20 mm
zone of inhibition at 75 µg/mL [6]: 13 mm
zone of inhibition at 50 µg/mL [7]: 15 mm
zone of inhibition at 75 µg/mL [8]: 18 mm

O=C(CCc1c[nH]c2ccccc12)N1CCN(C(=O)c2ccc(F)cc2)CC1
zone of inhibition at 25 µg/mL [1]: 13 mm
MIC [2]: 65.9 µM
zone of inhibition at 50 µg/mL [3]: 15 mm
zone of inhibition at 50 µg/mL [4]: 10 mm
zone of inhibition at 75 µg/mL [5]: 20 mm
zone of inhibition at 75 µg/mL [6]: 13 mm
zone of inhibition at 50 µg/mL [7]: 15 mm
zone of inhibition at 75 µg/mL [8]: 18 mm

Cc1ccc(C(=O)N2CCN(C(=O)Cc3c[nH]c4ccccc34)CC2)cc1
zone of inhibition at 25 µg/mL [1]: 12 mm
MIC [2]: > 120 µM
zone of inhibition at 50 µg/mL [3]: 13 mm
zone of inhibition at 75 µg/mL [5]: 15 mm
zone of inhibition at 75 µg/mL [6]: 10 mm
zone of inhibition at 50 µg/mL [7]: 12 mm
zone of inhibition at 75 µg/mL [8]: 18 mm

O=C(CCc1cn(Cc2ccc(F)cc2)c2ccccc12)N1CCN(S(=O)(=O)c2ccc(F)cc2)CC1
zone of inhibition at 25 µg/mL [1]: 15 mm
MIC [2]: 23.8 µM
zone of inhibition at 50 µg/mL [3]: 18 mm
zone of inhibition at 50 µg/mL [4]: 10 mm
zone of inhibition at 75 µg/mL [5]: 23 mm
zone of inhibition at 75 µg/mL [6]: 12 mm
zone of inhibition at 50 µg/mL [7]: 14 mm
zone of inhibition at 75 µg/mL [8]: 18 mm

O=C(CCc1c[nH]c2ccccc12)N1CCN(C(=O)c2ccccc2)CC1
MIC [2]: > 120 µM
zone of inhibition at 50 µg/mL [3]: 13 mm
zone of inhibition at 50 µg/mL [4]: 10 mm
zone of inhibition at 75 µg/mL [5]: 15 mm
zone of inhibition at 75 µg/mL [6]: 12 mm
zone of inhibition at 50 µg/mL [7]: 13 mm
zone of inhibition at 75 µg/mL [8]: 15 mm

O=C(Cc1c[nH]c2ccccc12)N1CCN(C(=O)c2ccc(F)cc2)CC1
MIC [2]: 68.4 µM
zone of inhibition at 50 µg/mL [3]: 13 mm
zone of inhibition at 75 µg/mL [5]: 20 mm
zone of inhibition at 75 µg/mL [6]: 10 mm
zone of inhibition at 50 µg/mL [7]: 15 mm
zone of inhibition at 75 µg/mL [8]: 18 mm

Cc1ccc(S(=O)(=O)N2CCN(C(=O)CCc3cn(Cc4ccc(F)cc4)c4ccccc34)CC2)cc1
zone of inhibition at 25 µg/mL [1]: 15 mm
MIC [2]: 48.1 µM
zone of inhibition at 50 µg/mL [3]: 18 mm
zone of inhibition at 75 µg/mL [5]: 23 mm
zone of inhibition at 75 µg/mL [6]: 10 mm
zone of inhibition at 50 µg/mL [7]: 15 mm
zone of inhibition at 75 µg/mL [8]: 18 mm

O=C(CCc1cn(Cc2ccc(F)cc2)c2ccccc12)N1CCN(C(=O)c2ccccc2)CC1
zone of inhibition at 25 µg/mL [1]: 15 mm
MIC [2]: 53.2 µM
zone of inhibition at 50 µg/mL [3]: 18 mm
zone of inhibition at 50 µg/mL [4]: 10 mm
zone of inhibition at 75 µg/mL [5]: 23 mm
zone of inhibition at 75 µg/mL [6]: 13 mm
zone of inhibition at 50 µg/mL [7]: 13 mm
zone of inhibition at 75 µg/mL [8]: 15 mm

O=C(CCc1c[nH]c2ccccc12)N1CCN(S(=O)(=O)c2ccc(Cl)cc2)CC1
MIC [2]: 57.8 µM
zone of inhibition at 50 µg/mL [3]: 10 mm
zone of inhibition at 75 µg/mL [5]: 13 mm
zone of inhibition at 75 µg/mL [6]: 10 mm
zone of inhibition at 50 µg/mL [7]: 8 mm
zone of inhibition at 75 µg/mL [8]: 10 mm

O=C(Cc1cn(Cc2ccc(F)cc2)c2ccccc12)N1CCN(S(=O)(=O)c2ccc(Cl)cc2)CC1
zone of inhibition at 25 µg/mL [1]: 15 mm
MIC [2]: 23.8 µM
zone of inhibition at 50 µg/mL [3]: 18 mm
zone of inhibition at 75 µg/mL [5]: 22 mm
zone of inhibition at 75 µg/mL [6]: 13 mm
zone of inhibition at 50 µg/mL [7]: 15 mm
zone of inhibition at 75 µg/mL [8]: 18 mm

Cc1ccc(S(=O)(=O)N2CCN(C(=O)Cc3cn(Cc4ccc(F)cc4)c4ccccc34)CC2)cc1
zone of inhibition at 25 µg/mL [1]: 13 mm
MIC [2]: 49.4 µM
zone of inhibition at 50 µg/mL [3]: 18 mm
zone of inhibition at 75 µg/mL [5]: 22 mm
zone of inhibition at 75 µg/mL [6]: 13 mm
zone of inhibition at 50 µg/mL [7]: 15 mm
zone of inhibition at 75 µg/mL [8]: 18 mm

Cc1ccc(C(=O)N2CCN(C(=O)CCc3c[nH]c4ccccc34)CC2)cc1
zone of inhibition at 25 µg/mL [1]: 10 mm
MIC [2]: 66.6 µM
zone of inhibition at 50 µg/mL [3]: 13 mm
zone of inhibition at 50 µg/mL [4]: 10 mm
zone of inhibition at 75 µg/mL [5]: 15 mm
zone of inhibition at 75 µg/mL [6]: 15 mm
zone of inhibition at 50 µg/mL [7]: 13 mm
zone of inhibition at 75 µg/mL [8]: 15 mm

O=C(CCc1cn(Cc2ccc(F)cc2)c2ccccc12)N1CCN(S(=O)(=O)c2ccc(Cl)cc2)CC1
zone of inhibition at 25 µg/mL [1]: 15 mm
MIC [2]: 23.1 µM
zone of inhibition at 50 µg/mL [3]: 18 mm
zone of inhibition at 50 µg/mL [4]: 13 mm
zone of inhibition at 75 µg/mL [5]: 23 mm
zone of inhibition at 75 µg/mL [6]: 17 mm
zone of inhibition at 50 µg/mL [7]: 15 mm
zone of inhibition at 75 µg/mL [8]: 18 mm

O=C(Cc1cn(Cc2ccc(F)cc2)c2ccccc12)N1CCN(C(=O)c2ccc(Cl)cc2)CC1
zone of inhibition at 25 µg/mL [1]: 13 mm
MIC [2]: 25.5 µM
zone of inhibition at 50 µg/mL [3]: 18 mm
zone of inhibition at 50 µg/mL [4]: 10 mm
zone of inhibition at 75 µg/mL [5]: 23 mm
zone of inhibition at 75 µg/mL [6]: 13 mm
zone of inhibition at 50 µg/mL [7]: 13 mm
zone of inhibition at 75 µg/mL [8]: 15 mm

O=C(Cc1cn(Cc2ccc(F)cc2)c2ccccc12)N1CCN(C(=O)c2ccccc2)CC1
zone of inhibition at 25 µg/mL [1]: 13 mm
MIC [2]: > 120 µM
zone of inhibition at 50 µg/mL [3]: 17 mm
zone of inhibition at 50 µg/mL [4]: 10 mm
zone of inhibition at 75 µg/mL [5]: 23 mm
zone of inhibition at 75 µg/mL [6]: 12 mm
zone of inhibition at 50 µg/mL [7]: 10 mm
zone of inhibition at 75 µg/mL [8]: 12 mm

O=C(Cc1c[nH]c2ccccc12)N1CCN(C(=O)c2ccc(Cl)cc2)CC1
zone of inhibition at 25 µg/mL [1]: 13 mm
MIC [2]: 65.5 µM
zone of inhibition at 50 µg/mL [3]: 15 mm
zone of inhibition at 50 µg/mL [4]: 10 mm
zone of inhibition at 75 µg/mL [5]: 20 mm
zone of inhibition at 75 µg/mL [6]: 15 mm
zone of inhibition at 50 µg/mL [7]: 10 mm
zone of inhibition at 75 µg/mL [8]: 12 mm

COc1ccc(S(=O)(=O)N2CCN(C(=O)CCc3cn(Cc4cn(Cc5ccc(F)cc5)nn4)c4ccccc34)CC2)cc1
zone of inhibition at 25 µg/mL [1]: 10 mm
MIC [2]: 20.3 µM
zone of inhibition at 50 µg/mL [3]: 15 mm
zone of inhibition at 50 µg/mL [4]: 10 mm
zone of inhibition at 75 µg/mL [5]: 18 mm
zone of inhibition at 75 µg/mL [6]: 13 mm
zone of inhibition at 50 µg/mL [7]: 15 mm
zone of inhibition at 75 µg/mL [8]: 18 mm

O=C(Cc1cn(Cc2ccc(F)cc2)c2ccccc12)N1CCN(S(=O)(=O)c2ccc(F)cc2)CC1
zone of inhibition at 25 µg/mL [1]: 15 mm
MIC [2]: 24.5 µM
zone of inhibition at 50 µg/mL [3]: 18 mm
zone of inhibition at 75 µg/mL [5]: 20 mm
zone of inhibition at 75 µg/mL [6]: 18 mm
zone of inhibition at 50 µg/mL [7]: 13 mm
zone of inhibition at 75 µg/mL [8]: 18 mm

O=C(CCc1cn(Cc2cn(Cc3ccc(F)cc3)nn2)c2ccccc12)N1CCN(C(=O)c2ccccc2)CC1
zone of inhibition at 25 µg/mL [1]: 13 mm
MIC [2]: 22.7 µM
zone of inhibition at 50 µg/mL [3]: 10 mm
zone of inhibition at 50 µg/mL [4]: 10 mm
zone of inhibition at 75 µg/mL [5]: 20 mm
zone of inhibition at 75 µg/mL [6]: 12 mm
zone of inhibition at 50 µg/mL [7]: 15 mm
zone of inhibition at 75 µg/mL [8]: 18 mm

O=C(CCc1c[nH]c2ccccc12)N1CCN(C(=O)c2ccc(Cl)cc2)CC1
zone of inhibition at 25 µg/mL [1]: 10 mm
MIC [2]: 63.1 µM
zone of inhibition at 50 µg/mL [3]: 15 mm
zone of inhibition at 50 µg/mL [4]: 10 mm
zone of inhibition at 75 µg/mL [5]: 20 mm
zone of inhibition at 75 µg/mL [6]: 12 mm
zone of inhibition at 50 µg/mL [7]: 10 mm
zone of inhibition at 75 µg/mL [8]: 12 mm

O=C(CCc1cn(Cc2cn(Cc3ccc(F)cc3)nn2)c2ccccc12)N1CCN(C(=O)c2ccc([N+](=O)[O-])cc2)CC1
zone of inhibition at 25 µg/mL [1]: 10 mm
MIC [2]: 21 µM
zone of inhibition at 25 µg/mL [9]: 15 mm
zone of inhibition at 50 µg/mL [3]: 13 mm
zone of inhibition at 75 µg/mL [5]: 20 mm
zone of inhibition at 75 µg/mL [6]: 13 mm
zone of inhibition at 50 µg/mL [7]: 19 mm
zone of inhibition at 75 µg/mL [8]: 20 mm

NNC(=O)c1ccncc1 [ISONIAZID]
MIC [2]: 11.7 µM

NC(=O)c1cnccn1 [PYRAZINAMIDE]
MIC [2]: 25.3 µM
